# Measured values taken from patent US12240862B2, “Inhibitors of peptidylarginine deiminases” (Gilead Sciences, Inc., priority 2020, dated 2025).
# Biological target: T1, human PAD4 (Homo sapiens, UniProt Q9UM07)
# T1 construct: human PAD4 (NM_012387), A2P663, was PCR amplified; His-SUMO (N, cleaved yes); made in house; host or cells: E. coli BL21(DE3)
# Assay: In vitro PAD4 BAEE biochemical assay
# Settings: human PAD4, BAEE substrate; 5 nM PAD4, 2 mM calcium chloride, 3 mM BAEE; geometric mean of multiple experiments
# How it was run: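 Ammonia generated from BAEE serves as the readout, measured by o-phthalaldehyde after EDTA termination. Final conditions: 5 nM human PAD4 (SUMO tag cleaved), 2 mM CaCl2, 3 mM BAEE, pH 7.6 MOPS buffer, 25 °C for 2 h following a 30-min compound preincubation.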
# T1 sequence (Q9UM07 2-663): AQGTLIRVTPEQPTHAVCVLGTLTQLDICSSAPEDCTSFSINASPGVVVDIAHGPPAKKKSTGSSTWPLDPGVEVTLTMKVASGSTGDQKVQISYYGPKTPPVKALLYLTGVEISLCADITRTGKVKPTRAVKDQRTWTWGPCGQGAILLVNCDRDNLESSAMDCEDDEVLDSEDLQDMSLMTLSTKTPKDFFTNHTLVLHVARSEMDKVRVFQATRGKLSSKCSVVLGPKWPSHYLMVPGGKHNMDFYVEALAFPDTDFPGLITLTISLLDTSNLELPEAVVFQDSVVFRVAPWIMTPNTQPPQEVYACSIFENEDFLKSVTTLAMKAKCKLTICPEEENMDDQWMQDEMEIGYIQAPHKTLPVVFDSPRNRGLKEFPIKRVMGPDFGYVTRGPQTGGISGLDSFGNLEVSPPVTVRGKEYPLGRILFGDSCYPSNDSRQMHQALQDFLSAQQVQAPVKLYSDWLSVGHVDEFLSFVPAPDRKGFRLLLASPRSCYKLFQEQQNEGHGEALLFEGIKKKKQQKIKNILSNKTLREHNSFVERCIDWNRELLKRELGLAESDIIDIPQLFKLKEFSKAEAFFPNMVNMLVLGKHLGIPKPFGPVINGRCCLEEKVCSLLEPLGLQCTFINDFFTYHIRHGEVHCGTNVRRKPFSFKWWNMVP
row,SMILES,IC50 [nM]
1,"COc1cc(C(=O)N2C[C@@H](N)[C@H](F)C2)cc2nc(-c3cc4ccc(N(C(F)F)S(C)(=O)=O)nc4n3CC3CC3)c(C)n12 [Example 280, ~{N}-[2-[7-[(3~{R}, 4~{R})-3-amino-4-fluoropyrrolidine-1-carbonyl]-5-methoxy-3-methylimidazo [1,2-a]pyridin-2-yl]-1-(cyclopropylmethyl)pyrrolo[2,3-b]pyridin-6-yl]-~{N}-(difluoromethyl) methanesulfonamide]",33800
2,"COc1cc(C(=O)N2CC[C@H]3CCCN[C@H]3C2)cc2nc(-c3cc4ccc([C@@H](C)NC(=O)C56CC(F)(C5)C6)nc4n3CC3CC3)c(C)n12 [Example 31, ~{N}-[(1~{R})-1-[2-[7-[(4~{a}~{R}, 8~{a}~{R})-2,3,4,4~{a},5,6,8,8~{a}-octahydro-1~{H}-1,7-naphthyridine-7-carbonyl]-5-methoxy-3-methylimidazo [1,2-a]pyridin-2-yl]-1-(cyclopropylmethyl)pyrrolo[2,3-b]pyridin-6-yl]ethyl]-3-fluorobicyclo[1.1.1] pentane-1-carboxamide]",487
3,"CCc1ccc2cc(-c3nc4cc(C(=O)N5[C@H]6CC[C@@H]5[C@H](N)C6)cc(OC)n4c3C)n(CCC(C)(C)C#N)c2n1 [Example 508, 4-[2-[7-[(1~{R},2~{R}, 4~{S})-2-amino-7-azabicyclo[2.2.1]heptane-7-carbonyl]-5-methoxy-3-methylimidazo[1,2-a]pyridin-2-yl]-6-ethylpyrrolo [2,3-b]pyridin-1-yl]-2,2-dimethylbutanenitrile]",277
4,"COc1cc(C(=O)N2CC[C@@H]3CCNC[C@H]32)cc2nc(-c3cc4ccc(N(C(F)F)S(C)(=O)=O)nc4n3CC3CC3)c(C)n12 [Example 418, ~{N}-[2-[7-[(3~{a}~{S}, 7~{a}~{S})-2,3,3~{a},4,5,6,7,7~{a}-octahydropyrrolo[2,3-c]pyridine-1-carbonyl]-5-methoxy-3-methylimidazo[1,2-a]pyridin-2-yl]-1-(cyclopropylmethyl)pyrrolo [2,3-b]pyridin-6-yl]-~{N}-(difluoromethyl) methanesulfonamide]",151
5,"COc1cc(C(=O)N2[C@H]3CC[C@@H]2[C@H](N)C3)cc2nc(-c3cc4ccc([C@@H](C)NC(=O)[C@@H](C)OC)nc4n3CC3CC3)c(C)n12 [Example 40, (2~{R})-~{N}-[(1~{R})-1-[2-[7-[(1~{R},2~{R},4~{S})-2-amino-7-azabicyclo [2.2.1]heptane-7-carbonyl]-5-methoxy-3-methylimidazo [1,2-a]pyridin-2-yl]-1-(cyclopropylmethyl)pyrrolo[2,3-b]pyridin-6-yl]ethyl]-2-methoxypropanamide]",64.5
6,"CCc1ccc2cc(-c3nc4cc(C(=O)N5CCC6CCNC6C5)cc(OC)n4c3C)n(CC3CC3)c2n1 (centres unmarked) [Example 583, 1,2,3,3~{a},4,5,7,7~{a}-octahydropyrrolo[2,3-c] pyridin-6-yl-[2-[1-(cyclopropylmethyl)-6-ethylpyrrolo[2,3-b]pyridin-2-yl]-5-methoxy-3-methylimidazo[1,2-a]pyridin-7-yl]methanone]",535
7,"COc1cc(C(=O)N2[C@H]3CC[C@@H]2[C@H](N)C3)cc2nc(-c3cc4ccc([C@@H](C)NC(=O)c5ccccc5F)nc4n3CC3CC3)c(C)n12 [Example 15, ~{N}-[(1~{R})-1-[2-[7-[(1~{R}, 2~{R},4~{S})-2-amino-7-azabicyclo [2.2.1]heptane-7-carbonyl]-5-methoxy-3-methylimidazo [1,2-a]pyridin-2-yl]-1-(cyclopropylmethyl)pyrrolo[2,3-b]pyridin-6-yl]ethyl]-2-fluorobenzamide]",297
8,COc1cc(C(=O)N2[C@H]3CC[C@@H]2[C@H](N)C3)cc2nc(-c3cc4ccc([C@@H](C)NC(=O)N5CCC5)nc4n3CC3CC3)c(C)n12 [Example 247],70
